Our source for the Ki values is patent publication US10647743B2, “Method of making biologically active alpha-beta peptides” (priority 2008, dated 2020).

The structures appear in SMILES notation. Read-outs that look alike come from different tables or passages of the source. Where a SMILES comes first, the peptide text is derived from it. [ ]: non-standard residue; d: D form. β3hR = N=C(N)NCCC[C@H](N)CC(=O)O; β3hE = N[C@@H](CCC(=O)O)CC(=O)O

In the assay the target is gp41-5 (Human immunodeficiency virus type 1 group M subtype B, UniProt P04578, C598G/DEL582-595/DEL601-626/T627G/W596S). As to the kind of experiment: biochemical. The format is binding, HIV. The note with it: competition FP.

For orientation: Ki means the dissociation constant of the complex between target and ligand, obtained from inhibition or displacement. On to `CC[C@H](C)[C@H](NC(=O)[C@H](C)NC(=O)C[C@H](CCCNC(=N)N)NC(=O)[C@H](CC(=O)O)NC(=O)[C@H](Cc1c[nH]c2ccccc12)NC(=O)C[C@H](CCC(=O)O)NC(=O)[C@H](CCC(=O)O)NC(=O)[C@H](Cc1c[nH]c2ccccc12)NC(=O)[C@@H](NC(=O)C[C@H](CCCNC(=N)N)NC(C)=O)[C@@H](C)O)C(=O)N[C@@H](C)C(=O)N[C@@H](CCC(=O)O)CC(=O)N[C@@H](Cc1ccc(O)cc1)C(=O)N[C@@H](C)C(=O)N[C@@H](CCCNC(=N)N)CC(=O)N[C@@H](CCCNC(=N)N)C(=O)N[C@H](C(=O)N[C@@H](CCC(=O)O)C(=O)N[C@@H](CCC(=O)O)CC(=O)N[C@@H](CC(C)C)C(=O)N[C@H](C(=O)N[C@@H](CCCNC(=N)N)CC(=O)N[C@@H](C)C(=O)N[C@@H](C)C(=O)N[C@@H](CCC(N)=O)C(=O)N[C@@H](CCC(=O)O)CC(=O)N[C@@H](CCC(N)=O)C(=O)N[C@@H](CCC(N)=O)C(=O)N[C@@H](CCCNC(=N)N)CC(=O)N[C@@H](CCCCN)C(=O)N[C@@H](CC(N)=O)C(=O)N[C@@H](CCC(=O)O)C(=O)N[C@@H](CCC(=O)O)CC(=O)N[C@@H](C)C(=O)N[C@@H](CC(C)C)C(=O)N[C@@H](CCCNC(=N)N)CC(=O)N[C@@H](CCC(=O)O)C(=O)N[C@@H](CC(C)C)C(N)=O)[C@@H](C)CC)[C@@H](C)CC` [compound 17] (Ac-[β3hR]TWE[β3hE]WD[β3hR]AIA[β3hE]YA[β3hR]RIE[β3hE]LI[β3hR]AAQ[β3hE]QQ[β3hR]KNE[β3hE]AL[β3hR]EL-NH2), for which, where the note is “read-out: Ki for gp41-5”, the Ki amounted to 11 nM. In the case of `CC[C@H](C)[C@H](NC(=O)[C@H](C)NC(=O)[C@H](CCCNC(=N)N)NC(=O)[C@H](CC(=O)O)NC(=O)[C@H](Cc1c[nH]c2ccccc12)NC(=O)[C@H](C)NC(=O)[C@H](CCC(=O)O)NC(=O)[C@H](Cc1c[nH]c2ccccc12)NC(=O)[C@@H](NC(=O)[C@@H](NC(C)=O)[C@@H](C)O)[C@@H](C)O)C(=O)N[C@@H](C)C(=O)N[C@@H](CCC(=O)O)C(=O)N[C@@H](Cc1ccc(O)cc1)C(=O)N[C@@H](C)C(=O)N[C@@H](C)CC(=O)N[C@@H](CCCNC(=N)N)C(=O)N[C@H](C(=O)N[C@@H](CCC(=O)O)C(=O)N[C@@H](C)CC(=O)N[C@@H](CC(C)C)C(=O)N[C@H](C(=O)N[C@@H](CCCNC(=N)N)CC(=O)N[C@@H](C)C(=O)N[C@@H](C)C(=O)N[C@@H](CCC(N)=O)C(=O)N[C@@H](CCC(=O)O)CC(=O)N[C@@H](CCC(N)=O)C(=O)N[C@@H](CCC(N)=O)C(=O)N[C@@H](CCC(=O)O)CC(=O)N[C@@H](CCCCN)C(=O)N[C@@H](CC(N)=O)C(=O)N[C@@H](CCC(=O)O)C(=O)N[C@@H](C)CC(=O)N[C@@H](C)C(=O)N[C@@H](CC(C)C)C(=O)N[C@@H](CCCNC(=N)N)CC(=O)N[C@@H](CCC(=O)O)C(=O)N[C@@H](CC(C)C)C(N)=O)[C@@H](C)CC)[C@@H](C)CC` [compound 6], under “Table 2, read-out: gp41-5 Ki”, the Ki was determined as 15 nM.
